Test results as given in ChEMBL document CHEMBL1136409, “Design of novel N-(2,4-dioxo-1,2,3,4-tetrahydro-thieno[3,2-d]pyrimidin-7-yl)-guanidines as thymidine phosphorylase inhibitors, and flexible docking to a homology model” (Bioorg Med Chem Lett, 2003).

Target: T1, Thymidine phosphorylase (Homo sapiens, UniProt P19971)
T1 sequence (P19971 whole entry): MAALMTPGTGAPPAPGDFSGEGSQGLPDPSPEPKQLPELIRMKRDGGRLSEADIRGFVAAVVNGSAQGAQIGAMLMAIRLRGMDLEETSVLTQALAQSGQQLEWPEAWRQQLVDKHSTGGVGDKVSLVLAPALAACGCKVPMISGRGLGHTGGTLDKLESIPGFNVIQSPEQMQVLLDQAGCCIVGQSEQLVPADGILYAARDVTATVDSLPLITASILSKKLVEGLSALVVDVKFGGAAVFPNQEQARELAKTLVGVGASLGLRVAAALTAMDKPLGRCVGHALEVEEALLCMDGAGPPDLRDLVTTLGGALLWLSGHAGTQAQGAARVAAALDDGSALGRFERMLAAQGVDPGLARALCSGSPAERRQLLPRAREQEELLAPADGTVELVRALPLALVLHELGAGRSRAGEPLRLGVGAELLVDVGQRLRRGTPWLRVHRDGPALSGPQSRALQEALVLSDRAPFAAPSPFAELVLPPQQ
Assay: Binding affinity towards recombinant thymidine phosphorylase TP

Ki	Structure (SMILES)
> 300 µM	Nc1cc2[nH]c(=O)[nH]c(=O)c2s1
> 2400 µM	N=C(N)Nc1cc2[nH]c(=O)[nH]c(=O)c2s1
> 600 µM	Nc1csc2c(=O)[nH]c(=O)[nH]c12
